What was measured:
[1] = system: TU5 tumoral cells; experiment: Macrophage cytotoxic activity towards TU5 tumoral cells (peritoneal cells of mice treated i.p., collected seven days later and incubated with tumor target cells); format: cell-based, mouse; settings: peritoneal cells collected 7 days later, 48 h incubation with TU5 tumoral cells, colorimetric at 570 nm
Description: The experimental procedure to evaluate this activity is as follows: groups of 4 mice are treated i.p. with the tested compounds and then, seven days later, peritoneal cells are collected and plated for 2 hours at 37° C. After this period the walls are washed to eliminate the non adherent cells, tumor target cells are then added and the incubation is prolonged for 48 hours. At the end of this period the target cells viability is evaluated by a colorimetric method and quantified at 570 nm.
The following table summarizes the immunostimulating activity data of some compounds of the invention, obtained according to the hereabove experimental procedure, towards TU5 tumoral cells (Eur. J. Immunol. 1982, 12, 320)
Cytotoxic activity is calculated as % inhibition of TU5 tumoral cells growth using the following formula [formula] where
O.D.A.=optical density from cocultured TU5 and vehicol treated macrophages
O.D.B.=optical density from vehicol treated macrophages alone
O.D.C=optical density from cocultured TU5 and FCE compound treated macrophages
O.D.D=optical density from FCE compound treated macrophages alone.

[2] = Approximate acute toxicity (LD50) in the mouse, per os; settings: in vivo, po, single administration of increasing doses, measured on seventh day after the day of treatment
Description: For example, the approximate acute toxicity (LD50) in the mouse of the compound 4-hydroxy-N-(2-pyridyl)-cinnoline-3-carboxamide determined per os with single administration of increasing doses and measured on the seventh day after the day of treatment, is higher than 800 mg/kg. Analogous toxicity data have been found for the other compounds of the invention.

SMILES	Macrophage cytotoxic activity (% inhibition) ([1]; 50 mg/kg i.p. to mice)	LD50 at 168 h [2]	Macrophage cytotoxic activity (% inhibition) ([1]; 10 mg/kg i.p. to mice)
CN(C(=O)c1nnc2ccccc2c1O)c1ccccn1 [FCE 25051, 4-hydroxy-N-methyl-N-(2-pyridyl)-cinnoline-3-carboxamide]	80%	–	–
O=C(Nc1ccccn1)c1nnc2ccccc2c1O [FCE 24089, 4-hydroxy-N-(2-pyridyl)-cinnoline-3-carboxamide]	–	> 800 mg/kg	90%
O=C(Nc1ccccc1)c1nnc2ccccc2c1O [FCE 25008, 4-hydroxy-N-phenyl-cinnoline-3-carboxamide]	71%	–	–

Source: patent publication US4826837A, “Cinnoline-carboxamides and process for their preparation” (Farmitalia Carlo Erba s.r.l., priority 1987, dated 1989)
